# Data reported in US7169592B2, “Producing optically active amino compounds” (Kaneka Corporation, priority 1997, dated 2007).
# Marks after values point to notes of the source that are not given here.
# Legend:
# [1] = system: purified enzyme protein (transaminase); test: Reactivity of purified transaminase to carbonyl compounds with (R)-1-phenylethylamine as amino group donor; assay type: biochemical, Arthrobacter species KNK168; conditions: for Relative Activity: 25 mM carbonyl compound, 25 mM (R)-1-phenylethylamine, pH 8.5, 30° C., pyruvic acid = 100; for Reactivity as carbonyl compound (in words): (R)-1-phenylethylamine as amino group donor
# Method: Using the purified enzyme protein obtained in Example 9, reactivities to various carbonyl compounds using (R)-1-phenylethylamine as an amino group donor were evaluated. A 50 μl solution of the purified enzyme protein was added to 200 μl substrate solution [0.1 M Tris-HCl buffer (pH 8.5), 25 mM (R)-1-phenylethylamine, 0.1 mM pyridoxal phosphate, and 25 mM various carbonyl compounds], and the mixture was reacted at 30° C. for 1 to 3 hours in tube. The reaction tube was transferred into boiling water to stop the reaction, and thereafter, the reaction mixture was diluted five-folds with methanol. This diluted solution was analyzed by high-performance liquid chromatography using a fine pack C18-5 column and using methanol-water (20:80) as an eluent to quantitate acetophenone formed by the reaction.
# [2] = system: Arthrobacter species KNK168 strain; test: Amino group donors in whole-cell transamination of 1-(3,4-dimethoxyphenyl)-2-propanone; assay type: cell-based
# Method: The cultured cells were harvested by centrifugation, and the harvested cells were suspended in a reaction mixture (pH 8.5) containing 1% 1-(3,4-dimethoxyphenyl)-2-propanone, 0.1% Triton X-100, and 1% an amino group donor shown in Table 5. The mixture was reacted at 35° C. for 20 hours.
# [3] = system: Transaminase of Present Invention (purified enzyme); test: Reactivity of purified transaminase to amino compounds (amino group donors) with pyruvic acid as acceptor; assay type: biochemical, Arthrobacter sp. KNK168; set-up: Substrate Specificity, relative activity: concentration or dose not given beside the values; conditions: for Relative Activity: amino compound 40 mM in substrate solution, pyruvic acid acceptor, pH 8.3, 30° C., 1 hour, (R)-1-phenylethylamine = 100; for Reactivity as amino compound (in words): pyruvic acid as amino acceptor
# Description: (§1) The differences with the ω-amino acid transaminase derived from Pseudomonas sp. F-1 (Agric. Biol. Chem., 42, 2363–2367 (1978), Agric. Biol. Chem., 43, 1043–1048 (1979), J. Biol. Chem., 258, 2260–2265 (1983)) which have been well studied among the ω-amino acid transaminases, and with the benzylamine transaminase of Okada et al. (Japanese Patent Laid-Open No. Hei 6-178685) are summarized and shown in Table 2. In a case of the transaminase reaction in the present invention, the data of the purified enzyme are used, and in cases of those by other two enzymes, the data of the purified enzymes which are disclosed in each of the literature publication and laid-open patent publication are used. Pyruvic acid is used as an amino group acceptor in all cases.
# Using the purified enzyme protein obtained in Example 9, reactivities to various amino compounds when using pyruvic acid as an amino acceptor were evaluated. A 150 μl solution of the purified enzyme protein solution diluted ten-folds was added to a 150 μl substrate solution [0.1 M potassium phosphate buffer (pH 8.3), 40 mM pyruvic acid, 0.1 mM pyridoxal phosphate, and 40 mM various amino compounds]. The components were reacted at 30° C. for 1 hour. The reaction tube was transferred into boiling water to stop the reaction, and thereafter, a part of the reaction mixture was diluted five-folds. Ten μl 0.1 M boric acid buffer (pH 8.0) and a 20 μl ethanol solution of 80 mM 4-fluoro-7-nitro-2,1,3-benzoxadiazole (NBD-F) were added to the 10 μl above-mentioned diluted reaction mixture. The resulting mixture was reacted at 60° C. for 1 minute, and thereafter, the resulting mixture was ice-cooled, and 460 μl 5 mM HCl was added thereto. This reaction mixture was analyzed by high-performance liquid chromatography using a fine pack C18-5 column (manufactured by Nippon Bunko) I and using 0.1 M potassium phosphate buffer (pH 6.5) and CH3CN (90:10) as an eluent to detect formation of NBD-Alanine with an excitation wavelength of 470 nm and a detection wave of […]. The results thereof are shown in Table 8 in terms of relative activity in the case of using […] as a substrate.
# [4] = biological target: T1, ω-amino acid transaminase (Pseudomonas putida, UniProt P28269); conditions: purified enzyme, literature; pyruvic acid as amino group acceptor; cited from earlier work
# T1 sequence (P28269 1-449): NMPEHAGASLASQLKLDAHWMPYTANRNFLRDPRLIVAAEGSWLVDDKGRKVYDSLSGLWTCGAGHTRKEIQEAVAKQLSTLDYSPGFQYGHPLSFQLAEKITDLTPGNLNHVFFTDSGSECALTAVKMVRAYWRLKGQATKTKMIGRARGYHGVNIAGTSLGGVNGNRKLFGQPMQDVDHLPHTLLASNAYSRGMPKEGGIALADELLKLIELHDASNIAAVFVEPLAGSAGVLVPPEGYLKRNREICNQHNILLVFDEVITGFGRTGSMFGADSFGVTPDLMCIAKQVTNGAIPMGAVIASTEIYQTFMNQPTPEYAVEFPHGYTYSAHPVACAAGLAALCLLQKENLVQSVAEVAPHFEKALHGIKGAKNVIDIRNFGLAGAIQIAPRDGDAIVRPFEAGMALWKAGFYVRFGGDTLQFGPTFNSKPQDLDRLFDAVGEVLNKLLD
# [5] = system: transaminase (intracellular enzyme); test: Activity of the transaminase (intracellular enzyme) on typical substrates of ω-aminotransferases; assay type: biochemical, Arthrobacter sp. KNK168
# [6] = system: Transaminase of Present Invention (purified enzyme); test: Influence of reaction inhibitors on purified transaminase; assay type: biochemical, Arthrobacter sp. KNK168; conditions: inhibitor 1 mM; without addition = 100
# Description: as §1
# [7] = system: Arthrobacter species KNK168 strain; test: Surfactant and fatty acid additives in whole-cell transamination; assay type: cell-based; conditions: for (R)-DMA Formed: 30° C., pH 8.5, 20 hours; for Effect of additive on yield of reaction product (in words): whole cells
# Method: The cells obtained by culturing the Arthrobacter species KNK168 strain in the R medium were suspended in a reaction mixture containing 2% 1-(3,4-dimethoxyphenyl)-2-propanone and 4% (RS)-1-phenylethylamine. The surfactants and fatty acids shown in Table 6 were added thereto, and the mixture was reacted at 30° C. at a pH of 8.5 for 20 hours.
# [8] = 1% amino group donor, 1% 1-(3,4-dimethoxyphenyl)-2-propanone, 0.1% Triton X-100, pH 8.5, 35° C., 20 hours
# [9] = amino group acceptor 2-ketoglutaric acid, (R)-1-phenylethylamine/pyruvic acid = 100 (control)
# [10] = amino group acceptor pyruvic acid, (R)-1-phenylethylamine = 100 (control)
# [11] = additive 0.1%, no addition 28.1
compound,measurement,setting,value
2-Decane,Relative Activity,[1],3%
CC(CN)c1ccccc1 (racemic) [(RS)-1-Amino-2-phenylpropane],(R)-DMA Formed,[2]; pH 8.5,1.8%
CC(N)c1ccccc1 (racemic) [(RS)-1-Phenylmethylamine],(R)-DMA Formed,[2]; [8],3.1%
CC(N)CO (racemic) [(RS)-2-Amino-1-propanol],(R)-DMA Formed,[2]; [8],9.6%
NC(CO)c1ccccc1 (racemic) [(RS)-2-Amino-2-phenylethanol],(R)-DMA Formed,[2]; [8],48.4%
NC(CO)Cc1ccccc1 (racemic) [(RS)-2-Amino-3-phenylpropanol],(R)-DMA Formed,[2]; [8],22.7%
CC(N)CCc1ccccc1 (racemic) [(RS)-2-Amino-4-phenylbutane],(R)-DMA Formed,[2]; [8],27.6%
CC(N)CC(=O)O (racemic) [DL-3-Aminobutyric acid],Action of the transaminase on the substance (in words),[3],does not act on
same,"Substrate Specificity, relative activity","[3]; purified enzyme, pyruvic acid as amino group acceptor",0%
same,"Substrate Specificity, relative activity",[4],96%
NC(=O)CC(N)C(=O)O (racemic) [DL-Asparagine],Relative Activity,[5]; [9],0%
NC(=O)CCC(N)C(=O)O (racemic) [DL-Glutamine],Relative Activity,[5]; [9],0%
NCCCCC(N)C(=O)O (racemic) [DL-Lysine],Relative Activity,[5]; [9],0%
NCCCC(N)C(=O)O (racemic) [DL-Ornithine],Relative Activity,[5]; [9],0%
NC1C=CC=C(C(=O)O)C1 (racemic) [Gabaculine],Relative activity with inhibitor,[6],24%
"COc1ccc(CC(C)=O)cc1OC [1-(3,4-Dimethoxyphenyl)-2-propanone]",Relative Activity,[1],7%
COCC(C)=O [1-Methoxy-2-propanone],Relative Activity,[1],16%
CCCCCCC(C)N (stereo not drawn) [1-Methylheptylamine],Relative Activity,[3],47%
CCC(C)N (stereo not drawn) [1-Methylpropylamine],Relative Activity,[3],1.2%
CCC(=O)Cc1ccccc1 [1-Phenyl-2-butanone],Relative Activity,[1],1%
O=C1CCCc2ccccc21 [1-Tetralone],Relative Activity,[1],1%
"NCCCC(N)C(=O)O (stereo not drawn) [2,5-Diaminovalerate]",Relative Activity,[5]; [9],2%
CC(=O)c1ccco1 [2-Acetylfuran],Relative Activity,[1],2%
CC(=O)c1cnccn1 [2-Acetylpyrazine],Relative Activity,[1],17%
CC(=O)c1ccccn1 [2-Acetylpyridine],Relative Activity,[1],19%
CC(=O)c1nccs1 [2-Acetylthiazole],Relative Activity,[1],10%
CC(=O)c1cccs1 [2-Acetylthiophene],Relative Activity,[1],1%
CCC(=O)C(=O)O [2-Ketobutyric acid],Relative Activity,[1],7%
CCCCC(C)CN (stereo not drawn) [2-Methylhexylamine],Relative Activity,[3],37%
CC(=O)Oc1cccnc1 [3-Acetoxypyridine],Relative Activity,[1],1%
CC(=O)c1cccnc1 [3-Acetylpyridine],Relative Activity,[1],8%
CC(N)CCc1ccccc1 (stereo not drawn) [3-Aminophenylbutane],Relative Activity,[3],84%
same,Reactivity as amino compound (in words),[3],favorable reactivities
COc1ccc(CCC(C)=O)cc1 [4-(4-Methoxyphenyl)-2-butanone],Relative Activity,[1],7%
CC(=O)c1ccncc1 [4-Acetylpyridine],Relative Activity,[1],27%
C[C@@H](N)c1cccc2ccccc12 [(R)-1-Naphthylethylamine],(R)-DMA Formed,[2]; [8],34.2%
C[C@@H](N)c1ccccc1 [(R)-1-Phenylethylamine],Relative Activity,[3],100%
same,Activity on the substance as amino group donor (in words),[5],especially high activity
same,Relative Activity,[5]; [10],100* %
N[C@@H](CO)c1ccccc1 [(R)-2-Phenylglycinol],Relative Activity,[3],0%
C[C@H](N)c1ccccc1 [(S)-1-Phenylethylamine],Relative Activity,[3],0%
N[C@H](CO)c1ccccc1 [(S)-2-Phenylglycinol],Relative Activity,[3],180%
same,Reactivity as amino compound (in words),[3],favorable reactivities
CC(=O)CCc1ccccc1 [Benzyl acetone],Relative Activity,[1],3%
CCCCCCCCCCCCCCCC[N+](C)(C)C.[Br-] [Cetyl trimethyl ammonium bromide],(R)-DMA Formed,[7]; [11],29.1%
CC(=O)C(C)=O [Diacetyl],Relative Activity,[1],10%
CCOC(=O)CC(C)=O [Ethyl acetoacetate],Relative Activity,[1],4%
CCOC(=O)CC(=O)c1ccccc1 [Ethyl benzoyl acetate],Relative Activity,[1],2%
CCOC(=O)C(C)=O [Ethyl pyruvate],Relative Activity,[1],27%
O=CC(=O)O [Glyoxylic acid],Relative Activity,[1],4%
N[C@H](CO)Cc1ccccc1 [L-Phenylalaninol],Relative Activity,[3],0.8%
CCCCC/C=C\C/C=C\CCCCCCCC(=O)O [Linoleic Acid],(R)-DMA Formed,[7]; additive 2.9%,45.1%
same,Effect of additive on yield of reaction product (in words),[7],yield of the reaction product was increased
CCCCCCCC/C=C\CCCCCCCC(=O)O [Oleic Acid],(R)-DMA Formed,[7]; additive 2.9%,44.9%
same,Effect of additive on yield of reaction product (in words),[7],yield of the reaction product was increased
O=C(O)CC(=O)C(=O)O [Oxalacetic acid],Relative Activity,[1],87%
same,Reactivity as carbonyl compound (in words),[1],favorable reactivities
CC(=O)COc1ccccc1 [Phenoxy-2-propanone],Relative Activity,[1],83%
same,Reactivity as carbonyl compound (in words),[1],favorable reactivities
O=CCc1ccccc1 [Phenyl acetaldehyde],Relative Activity,[1],13%
CC(=O)C(=O)O [Pyruvic acid],Relative Activity,[1],100%
CCCCCCCCCCCCOS(=O)(=O)[O-].[Na+] [Sodium dodecyl sulfate],(R)-DMA Formed,[7]; [11],45.3%
same,(R)-DMA Formed,[7]; additive 0.5%,42.2%
same,(R)-DMA Formed,[7]; additive 1.0%,46.3%
same,(R)-DMA Formed,[7]; additive 2.0%,50.1%
same,(R)-DMA Formed,[7]; additive 3.0%,51.9%
same,(R)-DMA Formed,[7]; additive 4.0%,53.1%
same,Effect of additive on yield of reaction product (in words),[7],yield of the reaction product was increased
NCCS(=O)(=O)O [Taurine],Relative Activity,[5]; [9],0%
"NCCC(N)C(=O)O (stereo not drawn) [α-2,4-Diaminobutyric acid]",Relative Activity,[5]; [10],0%
Triton X-100,(R)-DMA Formed,[7]; [11],31.6%
same,(R)-DMA Formed,[7]; additive 0.5%,34.0%
